Assay [1] concerns A549 lung adenocarcinoma cells. As to the kind of experiment: 2-deoxyglucose uptake in A549 cells. The assay is classed as cell-based, human. The protocol:
Zero-trans glucose uptake in A549 cells was approximated by measuring the uptake of [1,2-^3H]2-deoxyglucose. For this purpose, A549 cells were pregrown in RPMI medium containing 10 mM glucose in a 24-well plate to a cell density of around 100,000 cells/well. Prior to adding radioactive label, cells were gently washed twice in Krebs-Ringer-HEPES buffer (50 mM HEPES pH 7.4, 137 mM NaCl, 4.7 mM KCl, […], 1.3 mM MgSO4 and 0.1% w/v BSA) at 30° C. to remove any residual sugar. RPMI medium without sugar containing the compound intended for treatment, was added to the cells for 15 min at 37° C. to allow adequate interaction of the cells with the compound.
The uptake measurement was initiated by adding an equal volume of medium containing radiolabeled 2DG. After 3-4 min, medium was aspirated and cells were gently washed three times with ice-cold Krebs-Ringer-HEPES buffer. Cells were lysed by adding 200 μL of ice-cold 0.1 M NaOH solution and incubating the plate for 10 min at 37° C. Cell lysates were transferred to scintillation vials for subsequent scintillation counting. For blank measurements, cells were incubated with 50 μM Cytochalasin B prior to the uptake measurement.

In another assay the test system is tps1Δ cells. As to the kind of experiment: Glu6P and Fru1,6bisP levels after glucose addition to tps1Δ cells. The assay is classed as cell-based, S. cerevisiae. The protocol: For measuring metabolite levels, cells were typically grown in Complete Synthetic medium. […] However, when comparing the effect of Warbicins on metabolite profiles of wild type and tps1Δ strains (FIG. 2f-k), cells were grown on 2% galactose. When grown to exponential phase, cells were harvested by centrifugation and washed twice with ice-cold 25 mM 2-(N-Morpholino)ethanesulfonic acid (MES) buffer, pH 6. Cells were suspended in Complete Synthetic medium without sugar at a concentration of 75 mg (wet weight)/mL followed by a temperature equilibration at 30° C. in a shaking water bath for 30 min. Depending on the experiment, a final concentration of 2.5 mM, 7.5 mM or 10 mM glucose was added to the cell suspension. Compounds were added 10 min prior to glucose addition. […]
Through endpoint measurement of the absorbance of NADH or NADPH at 340 nm, metabolite concentrations were calculated by applying Lambert's Law. Different metabolites were measured through the use of coupled enzymatic reactions. […] Depending on the measured metabolite, different co-factors and auxiliary enzymes were added. For measuring glucose-6-phosphate, 0.8 mg/ml NADP^+ was added to the assay buffer after which the baseline absorbance was measured. […] After stabilization of the OD340 spectra, ATP concentrations were measured by additionally adding 10 mM MgCl2 and 0.5 mM glucose to the assay buffer. […]

In the next assay the test system is wild type cells. Kind of assay: Zero-trans glucose uptake in wild type yeast cells. The assay is classed as cell-based, S. cerevisiae. The note with it: for Ki: Dixon plot analysis. The method, then:
Zero-trans uptake of radioactively labeled [U-^14C]glucose, [U-^14C]fructose or [U-^14C]galactose by S. cerevisiae cells was determined in accordance with previous studies^44,66. Cells were grown on different carbon sources depending on the experiment. For measuring glucose uptake activity in the tps1Δ and tps1Δ hxtA strains (FIG. 1b,c), cells were grown on YP medium containing 3% glycerol (measurement of 10s). Typically, for compound characterization and kinetic studies in wild type and tps1Δ strains, cells were (pre)grown on Complete Synthetic medium supplemented with 2% galactose (measurement of 10s). In the experiments on the influence of hexokinase activity on the sugar uptake rate, the measurement duration was shortened to 5s and cells were always grown on YP medium containing 3% glycerol and 2% ethanol. After harvesting, cells were washed twice with ice-cold 25 mM MES-buffer pH 6, and resuspended in their respective medium without sugar to a final concentration of 45 mg (wet weight)/mL. The amount of added tracer was estimated to give a response close to at least 1000 counts per min in order to adequately counter background noise. Cells were first preincubated for 10 min at 30° C. with the compound to acclimate the cells to the temperature and to allow adequate interaction with the compound prior to uptake. Next, hexose sugar was mixed with the cell suspension, which was then incubated for 5 or 10 s, depending on the experiment, after which the cells were rapidly filtered over a glass microfiber filter (Whatman GF/C) and washed three times with ice-cold dH2O. The loaded filter was transferred to a scintillation vial containing 3 mL liquid scintillation cocktail (Ultima-Flo M, Perkin Elmer) and counted using the Hidex 300 SL. Three blank measurements per strain were typically included to account for background signal, for which the cells were first quenched before adding the radioactive label.

Where two headings read alike, the source gives them in different places.

On to `Cc1nc(Sc2nnc3n2CCCCC3)c2c(-c3cccs3)csc2n1` [WBC-A], for which the Ki was determined as 52.8 µM in assay [1] (Dixon plot analysis, read-out: Ki (=K′i), 2-deoxyglucose uptake in A549 cells); 9.04 µM with wild type cells; 36.6 µM with wild type cells (printed K′, read-out: K′i, glucose uptake, wild type cells). In assay [1] (Lineweaver-Burk plot analysis), the “Type of inhibition of 2-deoxyglucose uptake in A549 cells” value is reported as “noncompetitive”. Moreover, in the assay with tps1Δ cells, the “Glu6P and Fru1,6bisP hyperaccumulation after addition of 2.5 mM glucose” value was “concentration-dependent gradual drop in Glu6P and a more precipitous drop in Fru1,6bisP”. In addition, in the assay with wild type cells (Lineweaver-Burk plot analysis), the “Type of inhibition of glucose uptake, wild type cells” value is on record as “mixed type”.

(Values after patent publication US20240252508A1, “Novel glucose uptake inhibitors for use in the treatment of cancer” (NOVELYEAST BV, priority 2021, published 2024).)
